Data: ChEMBL document CHEMBL1201862, “PubChem BioAssay data set” (2004)
Calls of active or inactive are those of the source.

Tests used:
[1] = THP-1 cell cytotoxicity, dose response, cytotoxicity control for Vif-APOBEC3G degradation inhibitor project, THP-1 cells (AID 1117359); type: functional; conditions: Human immunodeficiency virus 1, THP-1
[2] = target: T1, Calpain-2 catalytic subunit (Sus scrofa, UniProt P43367); experiment: pig calpain II inhibitor potency, dose response, biochemical, fluorogenic peptide substrate (AID 1420); type: functional
T1 sequence (P43367 whole entry): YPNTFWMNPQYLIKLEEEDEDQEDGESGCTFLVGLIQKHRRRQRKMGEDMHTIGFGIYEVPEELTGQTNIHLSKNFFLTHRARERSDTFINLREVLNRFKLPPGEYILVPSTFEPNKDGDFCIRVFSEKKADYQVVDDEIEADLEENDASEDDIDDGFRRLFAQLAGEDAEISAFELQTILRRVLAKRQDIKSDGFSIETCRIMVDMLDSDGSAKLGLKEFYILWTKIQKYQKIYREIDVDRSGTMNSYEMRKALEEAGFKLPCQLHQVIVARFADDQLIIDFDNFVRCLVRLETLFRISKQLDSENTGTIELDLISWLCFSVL

Vero = Vero cell cytotoxicity, cytotoxicity control for flavivirus capping enzyme inhibitors (AID 588742); type: functional; conditions: Chlorocebus sabaeus
[3] = Luminescence-based cell-based high throughput dose response assay to identify activators of the DAF-12 from the parasite S. stercoralis (ssDAF-12).; type: functional
[4] = target: T2, Oxysterols receptor LXR-beta (Homo sapiens, UniProt P55055); experiment: LXR agonists, Gal4 luciferase reporter, dose response, counter-screen for ssDAF-12 agonist project, cell-based, luminescence, HEK293, S. stercoralis campaign (AID 720737); type: functional; conditions: read-out: IC50 (the source's name)
T2 sequence (P55055 whole entry): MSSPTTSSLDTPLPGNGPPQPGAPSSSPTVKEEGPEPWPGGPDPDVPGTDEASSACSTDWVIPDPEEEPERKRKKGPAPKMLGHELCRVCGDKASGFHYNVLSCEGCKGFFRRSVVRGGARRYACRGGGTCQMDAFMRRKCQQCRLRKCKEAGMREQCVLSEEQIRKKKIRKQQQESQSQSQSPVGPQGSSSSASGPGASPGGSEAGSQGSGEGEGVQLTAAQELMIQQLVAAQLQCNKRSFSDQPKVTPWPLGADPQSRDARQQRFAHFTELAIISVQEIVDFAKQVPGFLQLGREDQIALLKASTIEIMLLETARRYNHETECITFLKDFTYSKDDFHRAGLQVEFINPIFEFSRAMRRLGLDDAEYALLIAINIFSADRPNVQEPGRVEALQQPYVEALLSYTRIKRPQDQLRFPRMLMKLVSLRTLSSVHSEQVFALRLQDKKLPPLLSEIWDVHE

[5] = target: T3, 1-phosphatidylinositol 4,5-bisphosphate phosphodiesterase gamma-1 (Homo sapiens, UniProt P19174); experiment: Counterscreen for inhibitors of phospholipase C isozymes (PLC-B3): Fluorescence-based biochemical high throughput dose response assay to identify inhibitors of phospholipase C isozymes (PLC-gamma1).
T3 sequence (P19174 whole entry): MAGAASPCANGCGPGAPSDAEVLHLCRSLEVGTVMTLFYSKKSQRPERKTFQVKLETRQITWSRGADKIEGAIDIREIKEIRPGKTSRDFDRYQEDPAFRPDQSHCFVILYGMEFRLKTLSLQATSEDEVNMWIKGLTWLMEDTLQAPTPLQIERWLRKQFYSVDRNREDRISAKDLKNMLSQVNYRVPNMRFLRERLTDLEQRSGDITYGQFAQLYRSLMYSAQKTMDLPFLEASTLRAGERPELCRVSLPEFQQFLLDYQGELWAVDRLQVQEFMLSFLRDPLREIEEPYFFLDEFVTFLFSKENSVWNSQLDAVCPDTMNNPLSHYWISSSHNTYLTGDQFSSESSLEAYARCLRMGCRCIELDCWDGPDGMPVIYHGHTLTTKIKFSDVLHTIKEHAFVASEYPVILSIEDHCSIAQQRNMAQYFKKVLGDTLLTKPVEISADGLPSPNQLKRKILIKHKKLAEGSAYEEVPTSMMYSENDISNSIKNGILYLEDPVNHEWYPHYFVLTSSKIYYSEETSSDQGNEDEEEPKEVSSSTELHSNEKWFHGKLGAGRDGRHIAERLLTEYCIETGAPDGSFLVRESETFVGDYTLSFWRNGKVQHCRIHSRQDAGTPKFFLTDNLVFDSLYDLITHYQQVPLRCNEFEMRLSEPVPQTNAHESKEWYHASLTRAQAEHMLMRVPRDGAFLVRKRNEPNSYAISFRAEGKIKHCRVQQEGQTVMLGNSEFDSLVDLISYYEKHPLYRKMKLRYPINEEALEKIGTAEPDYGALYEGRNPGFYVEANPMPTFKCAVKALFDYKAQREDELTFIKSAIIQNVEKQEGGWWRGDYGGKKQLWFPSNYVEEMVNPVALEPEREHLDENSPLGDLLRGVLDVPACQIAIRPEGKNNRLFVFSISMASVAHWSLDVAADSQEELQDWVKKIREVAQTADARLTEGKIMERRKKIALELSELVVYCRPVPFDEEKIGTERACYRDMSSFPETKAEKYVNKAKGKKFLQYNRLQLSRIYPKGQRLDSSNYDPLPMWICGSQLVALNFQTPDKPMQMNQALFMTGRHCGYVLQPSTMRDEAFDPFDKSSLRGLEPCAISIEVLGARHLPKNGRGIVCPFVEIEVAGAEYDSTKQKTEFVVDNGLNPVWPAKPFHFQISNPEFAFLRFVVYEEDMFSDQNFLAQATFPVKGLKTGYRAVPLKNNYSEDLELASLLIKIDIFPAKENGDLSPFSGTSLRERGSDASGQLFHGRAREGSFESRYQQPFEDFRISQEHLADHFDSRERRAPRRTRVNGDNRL

[6] = target: T4, 1-phosphatidylinositol 4,5-bisphosphate phosphodiesterase beta-3 (Homo sapiens, UniProt Q01970); experiment: Fluorescence-based biochemical high throughput dose response assay to identify inhibitors of phospholipase C isozymes (PLC-B3).
T4 sequence (Q01970 whole entry): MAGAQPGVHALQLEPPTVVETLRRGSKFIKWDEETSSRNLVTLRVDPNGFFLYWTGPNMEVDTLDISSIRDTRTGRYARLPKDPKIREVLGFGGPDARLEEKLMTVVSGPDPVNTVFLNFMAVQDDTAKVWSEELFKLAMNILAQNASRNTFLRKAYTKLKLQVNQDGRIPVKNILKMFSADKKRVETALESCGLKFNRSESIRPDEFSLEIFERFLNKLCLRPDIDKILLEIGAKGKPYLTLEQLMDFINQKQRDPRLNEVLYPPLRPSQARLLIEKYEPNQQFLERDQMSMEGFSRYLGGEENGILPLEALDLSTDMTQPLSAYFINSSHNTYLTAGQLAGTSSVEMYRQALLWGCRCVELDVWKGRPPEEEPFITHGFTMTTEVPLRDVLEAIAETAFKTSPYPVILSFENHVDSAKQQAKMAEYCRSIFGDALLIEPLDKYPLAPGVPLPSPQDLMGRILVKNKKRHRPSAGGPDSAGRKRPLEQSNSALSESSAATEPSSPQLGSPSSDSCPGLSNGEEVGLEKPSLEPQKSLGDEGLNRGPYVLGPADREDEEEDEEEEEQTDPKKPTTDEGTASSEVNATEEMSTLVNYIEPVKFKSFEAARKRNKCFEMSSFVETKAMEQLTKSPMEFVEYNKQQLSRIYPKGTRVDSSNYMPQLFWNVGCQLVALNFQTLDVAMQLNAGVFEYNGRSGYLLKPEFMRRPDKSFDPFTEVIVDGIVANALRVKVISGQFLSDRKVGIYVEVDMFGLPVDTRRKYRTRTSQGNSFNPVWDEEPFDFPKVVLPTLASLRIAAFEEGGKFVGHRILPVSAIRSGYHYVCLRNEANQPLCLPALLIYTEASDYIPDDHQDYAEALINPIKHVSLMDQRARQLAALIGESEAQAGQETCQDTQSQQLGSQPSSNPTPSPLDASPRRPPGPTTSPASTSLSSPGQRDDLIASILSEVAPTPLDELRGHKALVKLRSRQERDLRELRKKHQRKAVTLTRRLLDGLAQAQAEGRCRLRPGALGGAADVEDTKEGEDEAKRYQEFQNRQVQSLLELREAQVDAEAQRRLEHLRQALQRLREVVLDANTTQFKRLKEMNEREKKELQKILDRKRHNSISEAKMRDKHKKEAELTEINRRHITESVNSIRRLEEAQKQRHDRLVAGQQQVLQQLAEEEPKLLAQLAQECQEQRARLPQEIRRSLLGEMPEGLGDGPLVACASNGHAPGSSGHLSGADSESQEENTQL

Large T antigen = Large T antigen (Simian virus 40, UniProt P03070); type: functional, Betapolyomavirus macacae;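 also: Confirmatory-stage PubChem screen for compounds that inhibit SV40 T antigen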
Chain of Large T antigen (P03070 whole entry): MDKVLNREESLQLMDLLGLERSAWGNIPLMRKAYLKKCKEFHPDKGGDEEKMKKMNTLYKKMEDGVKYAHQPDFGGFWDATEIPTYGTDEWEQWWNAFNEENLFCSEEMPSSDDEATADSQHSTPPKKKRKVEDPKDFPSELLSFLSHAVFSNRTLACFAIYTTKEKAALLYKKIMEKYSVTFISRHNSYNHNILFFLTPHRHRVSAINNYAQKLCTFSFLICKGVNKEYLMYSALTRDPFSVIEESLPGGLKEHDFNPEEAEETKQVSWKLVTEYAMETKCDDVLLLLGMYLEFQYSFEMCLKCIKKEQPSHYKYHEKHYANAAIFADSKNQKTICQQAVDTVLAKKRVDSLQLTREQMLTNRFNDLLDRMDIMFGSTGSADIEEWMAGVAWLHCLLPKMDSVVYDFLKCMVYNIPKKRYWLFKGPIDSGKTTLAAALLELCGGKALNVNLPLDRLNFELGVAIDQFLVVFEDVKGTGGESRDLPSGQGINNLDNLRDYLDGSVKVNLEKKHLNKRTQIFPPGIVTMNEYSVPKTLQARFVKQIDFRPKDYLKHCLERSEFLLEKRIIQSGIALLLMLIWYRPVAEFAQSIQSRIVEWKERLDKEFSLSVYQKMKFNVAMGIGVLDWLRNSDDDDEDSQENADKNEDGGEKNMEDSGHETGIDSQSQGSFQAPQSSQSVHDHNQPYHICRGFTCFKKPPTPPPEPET

[7] = target: Induced myeloid leukemia cell differentiation protein Mcl-1 (Homo sapiens, UniProt Q07820); type: functional
Chain of Induced myeloid leukemia cell differentiation protein Mcl-1 (Q07820 whole entry): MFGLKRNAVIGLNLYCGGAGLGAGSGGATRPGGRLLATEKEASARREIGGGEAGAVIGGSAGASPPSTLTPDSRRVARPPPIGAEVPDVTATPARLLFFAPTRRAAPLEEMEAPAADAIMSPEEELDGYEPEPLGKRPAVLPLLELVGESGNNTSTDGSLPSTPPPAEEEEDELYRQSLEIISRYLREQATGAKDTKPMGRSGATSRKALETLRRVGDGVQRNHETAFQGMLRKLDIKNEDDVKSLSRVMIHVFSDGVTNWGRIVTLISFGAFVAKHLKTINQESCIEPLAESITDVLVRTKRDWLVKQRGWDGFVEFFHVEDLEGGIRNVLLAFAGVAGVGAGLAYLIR

[8] = target: T5, Heat shock factor protein 1 (Mus musculus, UniProt P38532); experiment: HSF1 potentiators in luciferase reporter cells, confirmation, cell-based, NIH3T3, luminescence, dose retest (AID 435004); type: functional;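 also: stress induced by proteasome inhibitor MG132 added 30 min after compound; luciferase reporter driven by HSF1 response element in NIH3T3 cells; actives raise luminescence as potentiators of the MG132 stress response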
T5 sequence (P38532 whole entry): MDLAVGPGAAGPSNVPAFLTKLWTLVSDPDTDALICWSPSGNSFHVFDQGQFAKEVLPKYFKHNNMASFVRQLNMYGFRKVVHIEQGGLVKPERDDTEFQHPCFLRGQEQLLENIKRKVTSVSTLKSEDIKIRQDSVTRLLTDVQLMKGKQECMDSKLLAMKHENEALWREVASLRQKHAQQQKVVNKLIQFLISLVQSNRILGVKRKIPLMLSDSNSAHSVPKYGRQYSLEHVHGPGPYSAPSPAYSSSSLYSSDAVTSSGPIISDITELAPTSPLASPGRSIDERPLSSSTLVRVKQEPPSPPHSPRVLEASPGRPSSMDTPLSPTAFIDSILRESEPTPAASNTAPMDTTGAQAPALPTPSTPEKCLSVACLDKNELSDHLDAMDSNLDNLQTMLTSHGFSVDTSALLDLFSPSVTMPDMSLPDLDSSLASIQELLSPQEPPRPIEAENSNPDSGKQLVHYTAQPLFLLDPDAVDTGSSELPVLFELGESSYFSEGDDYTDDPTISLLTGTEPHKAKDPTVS

Kallikrein-7 = Kallikrein-7 (Homo sapiens, UniProt P49862); experiment: Fluorescence Intensity-based biochemical primary high throughput dose response assay to identify activators of kallikrein-7 (K7) zymogen.
Chain of Kallikrein-7 (P49862 whole entry): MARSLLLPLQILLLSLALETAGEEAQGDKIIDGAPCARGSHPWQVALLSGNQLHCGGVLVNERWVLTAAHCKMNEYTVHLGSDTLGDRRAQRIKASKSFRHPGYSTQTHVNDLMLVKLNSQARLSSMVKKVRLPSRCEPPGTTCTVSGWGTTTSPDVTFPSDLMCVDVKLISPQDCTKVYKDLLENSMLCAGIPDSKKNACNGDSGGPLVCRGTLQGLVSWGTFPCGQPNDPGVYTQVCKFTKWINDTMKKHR

[9] = target: Luciferin 4-monooxygenase (Photinus pyralis, UniProt P08659); experiment: firefly luciferase enzyme inhibitors, dose response, biochemical, luminescence (AID 1891)
Chain of Luciferin 4-monooxygenase (P08659 whole entry): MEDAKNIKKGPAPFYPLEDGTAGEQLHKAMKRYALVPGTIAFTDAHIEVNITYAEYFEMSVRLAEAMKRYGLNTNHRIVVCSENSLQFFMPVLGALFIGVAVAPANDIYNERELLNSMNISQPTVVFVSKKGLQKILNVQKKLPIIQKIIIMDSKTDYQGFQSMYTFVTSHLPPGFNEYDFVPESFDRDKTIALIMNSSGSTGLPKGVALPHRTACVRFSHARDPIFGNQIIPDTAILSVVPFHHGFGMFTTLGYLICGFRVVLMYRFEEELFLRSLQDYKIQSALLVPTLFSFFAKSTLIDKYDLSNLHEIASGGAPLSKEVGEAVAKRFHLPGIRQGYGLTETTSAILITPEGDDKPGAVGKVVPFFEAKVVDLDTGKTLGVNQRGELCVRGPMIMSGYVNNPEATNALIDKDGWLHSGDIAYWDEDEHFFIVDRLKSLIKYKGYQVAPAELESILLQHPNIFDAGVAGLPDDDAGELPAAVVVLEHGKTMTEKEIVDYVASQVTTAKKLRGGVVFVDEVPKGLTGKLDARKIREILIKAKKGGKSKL

[10] = Luminescence Cell-Based Dose Confirmation HTS to Identify Inhibitors of Platelet Dense Granule Release. [Related pubchem assays: 1663 (Primary HTS), 1678 (Summary of Project)]; type: functional
[11] = target: T6, Rac GTPase-activating protein 1 (Homo sapiens, UniProt Q9H0H5); experiment: MgcRacGAP GTPase-activating activity inhibitors, confirmation, biochemical, ADP Hunter fluorescence, primary and confirmatory (AID 624330); type: functional
T6 sequence (Q9H0H5 whole entry): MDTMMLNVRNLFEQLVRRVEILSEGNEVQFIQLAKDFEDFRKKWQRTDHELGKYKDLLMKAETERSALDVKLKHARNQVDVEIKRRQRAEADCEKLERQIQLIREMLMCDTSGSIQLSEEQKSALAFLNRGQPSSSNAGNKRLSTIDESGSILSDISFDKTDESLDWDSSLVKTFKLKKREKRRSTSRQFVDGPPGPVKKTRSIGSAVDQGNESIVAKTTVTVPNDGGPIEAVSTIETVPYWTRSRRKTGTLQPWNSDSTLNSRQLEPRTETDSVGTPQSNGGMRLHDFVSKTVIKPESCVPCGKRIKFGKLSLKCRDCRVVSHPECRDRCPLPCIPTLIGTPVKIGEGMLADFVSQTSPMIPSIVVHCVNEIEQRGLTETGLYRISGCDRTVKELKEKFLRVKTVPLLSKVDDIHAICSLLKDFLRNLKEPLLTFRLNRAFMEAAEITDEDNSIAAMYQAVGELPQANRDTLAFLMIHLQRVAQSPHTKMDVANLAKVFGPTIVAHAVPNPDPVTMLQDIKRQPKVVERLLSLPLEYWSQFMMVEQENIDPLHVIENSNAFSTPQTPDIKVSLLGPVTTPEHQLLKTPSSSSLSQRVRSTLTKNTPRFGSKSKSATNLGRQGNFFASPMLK

O=C(CN1C(=O)/C(=C\c2cccs2)SC1=S)Nc1cccc(C(=O)O)c1
CC50 [1]: > 40 µM (active)

COc1cc(CNc2ccc(O)cc2)cc(Br)c1OCc1ccccc1
IC50 [2]: 13 µM (not active) | CC50 (Vero): > 40 µM (active) | CC50 [1]: > 40 µM (active)

CC(C)NC(=O)c1nc2ccccc2s1
IC50 [3]: > 67.5 µM (inactive) | EC50 [4]: > 67.5 µM (inactive)

O=C(Cc1cccs1)N1CCC(c2nc(O)c3nnn(Cc4ccccc4)c3n2)CC1
IC50 [5]: > 122 µM (inactive) | IC50 [6]: > 122 µM (inactive)

O=C(OCC1O[C@@H](OC(=O)c2cc(O)c(O)c(O)c2)[C@@H](OC(=O)c2cc(O)c(O)c(O)c2)[C@@H](OC(=O)c2cc(O)c(O)c(O)c2)[C@@H]1OC(=O)c1cc(O)c(O)c(O)c1)c1cc(O)c(O)c(O)c1 (stereo partly drawn)
IC50 (Large T antigen): 4.51 µM (active) | IC50 [7]: 4.54 µM (active) | CC50 [1]: 20.6 µM (active)

O=[N+]([O-])c1ccc(Sc2ncccn2)c([N+](=O)[O-])c1
EC50 [8]: 6.83 µM (active) | IC50 [5]: > 123 µM (inactive) | IC50 [6]: > 123 µM (inactive)

O=C(/C=C/c1ccccc1)c1c[nH]c2ccccc12
IC50 [3]: > 67.4 µM (inactive) | EC50 [4]: > 67.4 µM (inactive)

Cc1cc(=O)oc2cc(OCC(=O)N3CCOCC3)c(Cl)cc12
EC50 (Kallikrein-7): > 69.6 µM (inactive)

COc1ccc(OC)c(/C=N/NC(=O)CN2CCSCC2)c1
EC50 (Kallikrein-7): 10.5 µM (inactive)

COc1ccc(/C=N/Nc2nc3ccccc3s2)cc1O
EC50 [9]: 0.947 µM (active) | EC50 [10]: 5.38 µM (active) | IC50 [11]: 102 µM (active) | IC50 [3]: > 67.5 µM (inactive) | EC50 [4]: > 67.5 µM (inactive)
